Data: PubChem BioAssay (NCI)
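Step 1: Grow cells in 96-well plates. Step 2: Expose to compound for 48 hours at 5 concentrations. Step 3: Interpolate endpoints linearly; if unreached, use highest concentration. Here, GI50 denotes the concentration required for 50% inhibition of growth. TGI is the concentration that stops growth completely.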

Tests used:
Test in all cases: NCI tumour cell line growth inhibition, 48 h
[1] = system: BT-549 breast
[2] = system: HT29 colon
[3] = system: NCI-H522 lung
[4] = system: NCI/ADR-RES ovarian
[5] = system: OVCAR-5 ovarian
[6] = system: SNB-19 CNS
[7] = system: U251 CNS
[8] = system: DLD-1 colon
[9] = system: DMS 273 small cell lung
[10] = system: HOP-18 NSCLC

CC[N+](CC)(CCNCC(N)=O)CC(N)=O
TGI [1]: > 10 µM | TGI [2]: > 10 µM | TGI [3]: > 10 µM | TGI [4]: > 10 µM | TGI [5]: > 10 µM | TGI [6]: > 10 µM | TGI [7]: > 10 µM

c1ccc(N=C2SC(=NC3CCCCC3)N(C3CCCCC3)C2=Nc2ccccc2)cc1
TGI [1]: > 100 µM | TGI [2]: > 100 µM | TGI [3]: > 100 µM | TGI [4]: > 100 µM | TGI [5]: > 100 µM | TGI [6]: > 100 µM | TGI [7]: > 100 µM

Cc1ccc(S(=O)(=O)Oc2cc(-c3ccccc3)nc3ccccc23)cc1
TGI [8]: > 46.8 µM | TGI [9]: > 28 µM | TGI [10]: 45.8 µM | TGI [2]: 7.54 µM | TGI [3]: 3.7 µM | TGI [4]: 11.6 µM | TGI [5]: 62 µM | TGI [6]: 12.3 µM | TGI [7]: 9.85 µM

C=CC(Br)(CBr)CCC(Cl)C(C)C (configuration not stated)
TGI [1]: 2.96 µM | TGI [2]: 3.17 µM | TGI [3]: 2.8 µM | TGI [5]: 5.03 µM | TGI [6]: 6.82 µM | TGI [7]: 3.02 µM

O=NN(CCCl)C(=O)NC1CCSc2ccccc21 (configuration not stated)
TGI [8]: > 100 µM | TGI [9]: > 100 µM | TGI [10]: > 100 µM | TGI [2]: > 100 µM | TGI [3]: > 100 µM | TGI [4]: > 100 µM | TGI [5]: > 100 µM | TGI [6]: > 100 µM | TGI [7]: > 100 µM

NC(Cc1cccc([N+](=O)[O-])c1)C(=O)O (configuration not stated)
TGI [1]: > 100 µM | TGI [2]: > 100 µM | TGI [3]: > 100 µM | TGI [4]: > 100 µM | TGI [5]: > 100 µM | TGI [6]: > 100 µM | TGI [7]: > 100 µM

Cc1nc(N)sc1-c1ccnc(Nc2ccc(N3CCOCC3)cc2)n1
GI50 [1]: 1.56 µM | TGI [1]: > 100 µM | GI50 [2]: 2.11 µM | TGI [2]: > 100 µM | GI50 [3]: 1.41 µM | TGI [3]: 87.5 µM | GI50 [4]: 3.43 µM | TGI [4]: > 100 µM | GI50 [6]: > 49.5 µM | TGI [6]: > 100 µM | GI50 [7]: 2.36 µM | TGI [7]: > 100 µM

COc1ccc(C2CC(c3cccc(Nc4ccncc4)c3)=NN2c2cc(Cl)cc(Cl)c2)cc1 (configuration not stated)
GI50 [1]: 5.57 µM | TGI [1]: 24.8 µM | GI50 [2]: 2.26 µM | TGI [2]: 5.46 µM | GI50 [4]: 1.72 µM | TGI [4]: 3.27 µM | GI50 [5]: 2.23 µM | TGI [5]: 5.19 µM

NC(N)=NCCN=C(N)N
TGI [1]: > 100 µM | TGI [2]: > 100 µM | TGI [3]: > 100 µM | TGI [4]: > 100 µM | TGI [5]: > 100 µM | TGI [6]: > 100 µM | TGI [7]: > 100 µM

NNC(N)Nc1ccccc1 (configuration not stated)
TGI [1]: > 100 µM | TGI [2]: > 100 µM | TGI [3]: > 100 µM | TGI [4]: > 100 µM | TGI [5]: > 100 µM | TGI [6]: > 100 µM | TGI [7]: > 100 µM

NCCCNc1nc2ccccc2c2c(=O)c3cc(OC(F)(F)F)ccc3sc12
GI50 [1]: 10.7 µM | TGI [1]: 32.6 µM | GI50 [4]: 1.73 µM | TGI [4]: 3.41 µM | GI50 [5]: 1.64 µM | TGI [5]: 3.07 µM | GI50 [6]: 1.63 µM | TGI [6]: 3.12 µM

CC(=O)Oc1cccc2c(/C=N/NC(N)=S)ncc(C)c12
TGI [1]: 12.3 µM | TGI [2]: 21.8 µM | TGI [3]: 32.5 µM | TGI [4]: 9.47 µM | TGI [5]: 22 µM | TGI [6]: 16.3 µM | TGI [7]: > 42.6 µM

CC1CC=CC(O)C1 (configuration not stated)
TGI [8]: > 100 µM | TGI [9]: > 100 µM | TGI [10]: > 100 µM | TGI [2]: > 100 µM | TGI [3]: > 100 µM | TGI [4]: > 100 µM | TGI [5]: > 100 µM | TGI [6]: > 100 µM | TGI [7]: > 100 µM

O=C(OC(=O)n1ccc2ccccc21)n1ccc2ccccc21
TGI [8]: > 100 µM | TGI [9]: > 100 µM | TGI [10]: > 100 µM | TGI [2]: > 100 µM | TGI [4]: > 100 µM | TGI [5]: > 100 µM | TGI [6]: > 100 µM | TGI [7]: > 100 µM

CCCCCN=Cc1c(O)c(O)c(C(C)C)c2cc(C)c(-c3c(C)cc4c(C(C)C)c(O)c(O)c(C=NCCCCC)c4c3O)c(O)c12
TGI [1]: 38.7 µM | TGI [2]: > 100 µM | TGI [3]: 25.2 µM | TGI [4]: > 100 µM | TGI [5]: > 100 µM | TGI [6]: 18.8 µM | TGI [7]: 18 µM

COc1cc(C[S+]2CCCC2)c(SC)cc1C[S+]1CCCC1
TGI [8]: > 100 µM | TGI [2]: > 100 µM | TGI [3]: > 100 µM | TGI [5]: > 100 µM | TGI [7]: > 100 µM

Cc1cc(=O)[nH]c(NN2C(Cl)C(=O)C2c2cccc(O)c2)n1 (configuration not stated)
TGI [9]: > 100 µM | TGI [10]: > 100 µM | TGI [2]: > 100 µM | TGI [5]: > 100 µM | TGI [6]: > 100 µM | TGI [7]: > 100 µM

CCC[CH2][Ge]([CH2]CCC)([CH2]CCC)[O]C(=O)CC(=O)c1ccccc1
GI50 [8]: 0.77 µM | TGI [8]: 16 µM | GI50 [9]: 0.752 µM | TGI [9]: 13.4 µM | GI50 [10]: 10.8 µM | TGI [10]: 22.7 µM | GI50 [2]: 0.64 µM | TGI [2]: 11.1 µM | GI50 [3]: 0.261 µM | TGI [3]: 10.4 µM | GI50 [5]: 2.17 µM | TGI [5]: 14.9 µM | GI50 [6]: 11.7 µM | TGI [6]: 24 µM | GI50 [7]: 3.27 µM | TGI [7]: 17.6 µM

NC(CCCCP(=O)(O)O)C(=O)O (configuration not stated)
TGI [1]: > 100 µM | TGI [2]: > 100 µM | TGI [3]: > 100 µM | TGI [4]: > 100 µM | TGI [5]: > 100 µM | TGI [6]: > 100 µM | TGI [7]: > 100 µM

CCc1nc(N)nc(N)c1-c1ccc2nn(-c3ccccc3)[n+]([O-])c2c1
TGI [1]: 26.3 µM | TGI [2]: 20.2 µM | TGI [3]: 11.6 µM | TGI [4]: 38.8 µM | TGI [5]: 44.3 µM | TGI [6]: > 70.4 µM | TGI [7]: 22.1 µM

CC(=O)OC1CCC2(C)C3CCC4(C)C(c5ccc(=O)oc5)CC5OC54C3CCC2(O)C1 (configuration not stated)
TGI [8]: 1.57 µM | TGI [9]: 6 µM | TGI [10]: 7.38 µM | TGI [2]: 16.1 µM | TGI [3]: 2.04 µM | TGI [4]: 6.99 µM | TGI [5]: 22.4 µM | TGI [6]: 31.8 µM | TGI [7]: 9.14 µM

Nc1nc(N)c2[nH]c(CNc3ccc(C(=O)O)cc3)nc2n1
TGI [1]: > 100 µM | TGI [2]: > 100 µM | TGI [3]: > 100 µM | TGI [4]: > 100 µM | TGI [5]: > 100 µM | TGI [6]: > 100 µM | TGI [7]: > 100 µM

O=[N+]([O-])c1ccc(C=C2C(Cl)=C(Cl)C(Cl)=C2Cl)cc1
GI50 [1]: 4.75 µM | TGI [1]: > 100 µM | GI50 [2]: 2.64 µM | TGI [2]: 7.14 µM | GI50 [4]: 3.05 µM | TGI [4]: 17.2 µM | GI50 [5]: 3.3 µM | TGI [5]: > 100 µM | GI50 [6]: 9.68 µM | TGI [6]: > 100 µM | GI50 [7]: 1.77 µM | TGI [7]: 3.46 µM
